This passage reports inhibition in vivo results from ChEMBL document CHEMBL1126523, “Synthesis and antiflammatory activity of some 3-heterocycle-1,2-benzisothiazoles” (1993).

Common to all, as to format: functional
Experiment [1] has as its system Rattus norvegicus. Nature of the experiment: Tested for % inhibition in carrageenan-induced rat paw adema after intraperitoneal administration of 100 mg/kg dose at 2 hours. Particulars: ip.
Experiment [2] concerns Rattus norvegicus. As to the kind of experiment: Tested for % inhibition in carrageenan-induced rat paw adema after intraperitoneal administration of 100 mg/kg dose at 3.5 hours. Particulars: ip. On the technique in general: In the carrageenan paw model, swelling and tenderness develop within hours.
In experiment [3] the test system is Rattus norvegicus. Nature of the experiment: Tested for % inhibition in carrageenan-induced rat paw adema after peroral administration of 100 mg/kg dose at 2 hours. The conditions noted are these: route oral.
In experiment [4] the test system is Rattus norvegicus. As to the kind of experiment: Tested for % inhibition in carrageenan-induced rat paw adema after peroral administration of 100 mg/kg dose at 3.5 hours. The conditions noted are these: route oral.

SMILES strings stand for the structures.

For orientation: inhibition in vivo means how much of the control response was suppressed. As for `c1ccc(-c2nnc(-c3nsc4ccccc34)o2)cc1`, the inhibition in vivo at 100 mg/kg in the experiment with Rattus norvegicus [1] stood at 60%; in the experiment with Rattus norvegicus [2], 48%; in the experiment on Rattus norvegicus [3], 60%; with Rattus norvegicus [4], 32%.

Turning to `CCn1c(S)nnc1-c1nsc2ccccc12`, the inhibition in vivo at 100 mg/kg with Rattus norvegicus [1] was 64%; in the experiment with Rattus norvegicus [2], 50%; in the experiment on Rattus norvegicus [3], 57%; in the experiment on Rattus norvegicus [4] it was 32%.

In the case of `Cc1nnc(-c2nsc3ccccc23)o1`, the inhibition in vivo at 100 mg/kg in the experiment with Rattus norvegicus [1] came out at 69%; in the experiment with Rattus norvegicus [2], 42%; in the experiment on Rattus norvegicus [3], 43%; with Rattus norvegicus [4], 21%.

Turning to `CCNc1nnc(-c2nsc3ccccc23)o1`, the inhibition in vivo at 100 mg/kg with Rattus norvegicus [1] came out at 65%; in the experiment with Rattus norvegicus [2], 42%; with Rattus norvegicus [3] it was 53%; with Rattus norvegicus [4] it was 29%.

Consider `Clc1ccc(Nc2nnc(-c3nsc4ccccc34)o2)cc1`, for which the inhibition in vivo at 100 mg/kg came out at 48% with Rattus norvegicus [1], 40% in the experiment with Rattus norvegicus [2], 14% in the experiment on Rattus norvegicus [3] and 10% with Rattus norvegicus [4].

As for `COc1ccc(-c2nnc(-c3nsc4ccccc34)o2)cc1`, the inhibition in vivo at 100 mg/kg in the experiment on Rattus norvegicus [1] is 45%; in the experiment with Rattus norvegicus [2] it was 33%; in the experiment on Rattus norvegicus [3], 21%; in the experiment on Rattus norvegicus [4], 29%.

Consider `c1ccc(Nc2nnc(-c3nsc4ccccc34)o2)cc1`, for which the inhibition in vivo at 100 mg/kg in the experiment on Rattus norvegicus [1] worked out at 67%; in the experiment with Rattus norvegicus [2] it was 48%; in the experiment on Rattus norvegicus [3], 56%; with Rattus norvegicus [4], 27%.

Regarding `CNc1nnc(-c2nsc3ccccc23)o1`, the inhibition in vivo at 100 mg/kg with Rattus norvegicus [1] turned out to be 67%; with Rattus norvegicus [2] it was 60%; with Rattus norvegicus [3], 10%; in the experiment with Rattus norvegicus [4], 10%.

For the compound `c1ccc(-c2nnc(-c3nsc4ccccc34)s2)cc1`, the inhibition in vivo at 100 mg/kg in the experiment with Rattus norvegicus [1] was found to be 21%; in the experiment on Rattus norvegicus [2] it was 10%; in the experiment with Rattus norvegicus [3], 10%; in the experiment on Rattus norvegicus [4], 22%.

As to `Clc1ccc(-c2nnc(-c3nsc4ccccc34)o2)cc1`, the inhibition in vivo at 100 mg/kg stood at 50% in the experiment on Rattus norvegicus [1], 33% with Rattus norvegicus [2], 13% with Rattus norvegicus [3] and 24% in the experiment with Rattus norvegicus [4].

As to `COc1ccc(Nc2nnc(-c3nsc4ccccc34)o2)cc1`, the inhibition in vivo at 100 mg/kg amounted to 59% in the experiment with Rattus norvegicus [1], 50% in the experiment with Rattus norvegicus [2], 28% in the experiment with Rattus norvegicus [3] and 33% in the experiment with Rattus norvegicus [4].

Regarding `c1ccc(Nc2nnc(-c3nsc4ccccc34)s2)cc1`, the inhibition in vivo at 100 mg/kg came out at 62% in the experiment on Rattus norvegicus [1], 48% with Rattus norvegicus [2], 8% in the experiment on Rattus norvegicus [3] and 10% with Rattus norvegicus [4].

In the case of `CCNc1nnc(-c2nsc3ccccc23)s1`, the inhibition in vivo at 100 mg/kg in the experiment on Rattus norvegicus [1] was determined as 59%; in the experiment on Rattus norvegicus [2] it was 50%; in the experiment on Rattus norvegicus [3], 34%; with Rattus norvegicus [4] it was 25%.

As to `Sc1nnc(-c2nsc3ccccc23)n1-c1ccccc1`, the inhibition in vivo at 100 mg/kg was determined as 81% with Rattus norvegicus [1], 60% in the experiment on Rattus norvegicus [2], 10% with Rattus norvegicus [3] and 10% with Rattus norvegicus [4].

As for `CCc1nnc(-c2nsc3ccccc23)s1`, the inhibition in vivo at 100 mg/kg in the experiment with Rattus norvegicus [1] was found to be 10%; with Rattus norvegicus [2], 10%; with Rattus norvegicus [3], 10%; in the experiment with Rattus norvegicus [4], 12%.

`CCc1nnc(-c2nsc3ccccc23)o1`: the inhibition in vivo at 100 mg/kg in the experiment on Rattus norvegicus [1] was 10%; with Rattus norvegicus [2], 10%; with Rattus norvegicus [3], 10%; with Rattus norvegicus [4], 18%.

With `CC(C)Cc1ccc(C(C)C(=O)O)cc1` (stereo not drawn) [IBUPROFEN], the inhibition in vivo at 100 mg/kg was 70% in the experiment with Rattus norvegicus [1], 74% with Rattus norvegicus [2], 62% in the experiment on Rattus norvegicus [3] and 65% in the experiment on Rattus norvegicus [4].
